Results on two compounds are retold here after US10556860B2, “hTERT modulators and methods of use” (Arizona Board of Regents on Behalf of the University of …, priority 2015, dated 2020).

The subject of assay [1] is G138/139A mutant hTERT 5-12 fragment. Nature of the assay: Single-molecule laser tweezer unfolding, G138/139A mutant. Format: biochemical, human. Particulars: 2 μM. Here is the method:
Single-molecule tweezer. Preparation of the DNA construct. The DNA construct that contains the single-stranded hTERT 5-12 fragment was prepared by sandwiching the target sequence between two double-stranded DNA handles. Five deoxythymidines were added at both ends of the hTERT 5-12 fragment to reduce the interference from the double-stranded DNA handles on the target sequence. Briefly, the 2690-base-pair double-stranded DNA handle was prepared through restriction enzyme digestion of the pEGFP vector (Clontech, Mountain View, Calif.). In the first step, the vector was digested by Sad and Eagl restriction enzymes, followed by purification with agarose gel. The EagI end of the DNA fragment was labeled with digoxigenin using terminal deoxynucleotidyl transferase. […]
Single-molecule force-ramp assay. […] After this, the two beads were moved apart to increase the tension on the DNA tether with a loading rate of 5.5 pN/s, and the force-extension (F-X) curves were recorded using the LabVIEW program (National Instruments Corp., Austin, Tex.).
The F-X curves were filtered by Savitzky-Golay function with a 10 ms time constant in the MATLAB program (The Math Works, Natick, Mass.). […] The change-in-contour length (ΔL) was calculated based on the Δx through the worm-like chain model (equation 1). […]

For assay [2], the system named is BCL2 mRNA. Briefly: qPCR of BCL2 mRNA in MCF7 cells. Format: cell-based, human. As to conditions: 72 h. Here is the method: qPCR. MCF7 and melanoma cells were treated with GTC365 and BRACO-19 for 72 h. Total RNA was extracted using an RNeasy mini-prep kit (Qiagen) and quantitated by measuring absorbance at 260 nm. cDNA was synthesized using a Takara PrimeScript™ RT Reagent Kit with gDNA eraser and then used as a template for qPCR. The qPCR was performed using Kapa Probe Fast qPCR Master Mix with ABI Taqman probes of hTERT (Hs00972656_m1), BCL2 (HS00608023_m1, FAM-labeled) or MYC (Hs00153408_m1), and GAPDH (Hs02758991_g1, VIC-labeled). The Ct values were measured by running Rotor-Gene Q, and the relative quantity of hTERT, BCL2, and MYC mRNA was obtained compared to GAPDH as an internal control.
BCL2 is a downstream molecule to hTERT such that BCL2 expression is activated by hTERT to repress apoptosis. To further define the effect of GTC365 on the transcription of hTERT, the relative mRNA levels of MYC and BCL2 were determined by quantitative PCR analysis in MCF7 cells after treatment with GTC365 for 72 h. […] A series of GTC260 analogs were synthesized and their effect on hTERT gene expression in MCF7A and U87 cells determined (FIG. 7). […] Therefore, GTC365 directly repressed the transcription of hTERT and then led to a downstream decrease of BCL2 expression.
(In general: Real-time PCR tracks product formation cycle by cycle.)

With `CN(C)c1ccc(Nc2c3ccc(NC(=O)CCN4CCCC4)cc3nc3cc(NC(=O)CCN4CCCC4)ccc23)cc1` [BRACO-19, reference compound], the “population of fully folded structures” value in assay [1] is “minimallypromoted the fully folded structure”. The “effect on BCL2 mRNA level” value in assay [2] was “no significant effect”.

For the compound `N=C(N)NCCCS(=O)(=O)Nc1ccc(Nc2c3ccccc3nc3cc([N+](=O)[O-])ccc23)cc1` [GTC365], in assay [1], the “population of fully folded structures” value is “significantly recovered”. Also, the “decrease of BCL2 mRNA level” value in assay [2] (1 μM) is listed as “up to 18%”.
